Laboratory results: the supplement of paper PMC13380429

Legend:
Settings in all cases: 72 h
Caco-2 [1] = assay: cell viability relative to DMSO; higher = less toxic
Calu-3 [2] = assay: as above
HepG2 [3] = assay: as above
U2OS [4] = assay: as above
Vero E6 [5] = assay: as above
Caco-2 [6] = assay: relative viability EC50 (midpoint between 100% and the lowest measured viability); higher = less toxic
Calu-3 [7] = assay: as above
U2OS [8] = assay: as above
Vero E6 [9] = assay: as above
Caco-2 [10] = assay: drug sensitivity score (DSS) for viability; higher = more toxic; extreme values may be limits of the assay
Calu-3 [11] = assay: as above
HepG2 [12] = assay: as above
U2OS [13] = assay: as above
Vero E6 [14] = assay: as above
HepG2 [15] = assay: relative viability EC50 (midpoint between 100% and the lowest measured viability); higher = less toxic

Structure (SMILES) | cell viability (Caco-2 [1]; 1 nM) | cell viability (Caco-2 [1]; 10 nM) | cell viability (Caco-2 [1]; 100 nM) | cell viability (Caco-2 [1]; 1000 nM) | cell viability (Caco-2 [1]; 10000 nM) | cell viability (Calu-3 [2]; 1 nM) | cell viability (Calu-3 [2]; 10 nM) | cell viability (Calu-3 [2]; 100 nM) | cell viability (Calu-3 [2]; 1000 nM) | cell viability (Calu-3 [2]; 10000 nM) | cell viability (HepG2 [3]; 1 nM) | cell viability (HepG2 [3]; 10 nM) | cell viability (HepG2 [3]; 100 nM) | cell viability (HepG2 [3]; 1000 nM) | cell viability (HepG2 [3]; 10000 nM) | cell viability (U2OS [4]; 1 nM) | cell viability (U2OS [4]; 10 nM) | cell viability (U2OS [4]; 100 nM) | cell viability (U2OS [4]; 1000 nM) | cell viability (U2OS [4]; 10000 nM) | cell viability (Vero E6 [5]; 1 nM) | cell viability (Vero E6 [5]; 10 nM) | cell viability (Vero E6 [5]; 100 nM) | cell viability (Vero E6 [5]; 1000 nM) | cell viability (Vero E6 [5]; 10000 nM) | relative viability EC50 (Caco-2 [6]) | relative viability EC50 (Calu-3 [7]) | relative viability EC50 (U2OS [8]) | relative viability EC50 (Vero E6 [9]) | drug sensitivity score (Caco-2 [10]) | drug sensitivity score (Calu-3 [11]) | drug sensitivity score (HepG2 [12]) | drug sensitivity score (U2OS [13]) | drug sensitivity score (Vero E6 [14]) | relative viability EC50 (HepG2 [15])
N#Cc1ccc(-c2csc(NN=C3CCCC3)n2)cc1 [remodelin] | 95.5% | 99.7% | 94.8% | 103% | 76.6% | 102% | 102% | 96.3% | 116% | 93% | 105% | 97.2% | 109% | 92.3% | 73.1% | 98.3% | 102% | 99.3% | 105% | 95.5% | 98.3% | 103% | 102% | 99.2% | 105% | > 10 µM | > 10 µM | > 10 µM | > 10 µM | 0.7 | 0 | 2.2 | 0 | 0 | –
CC(C)[C@H](CO)Nc1nc(Nc2cc(N)cc(Cl)c2)c2ncn(C(C)C)c2n1 [aminopurvalanol-a] | 101% | 97% | 98.5% | 100% | 38.2% | 98.4% | 87.7% | 101% | 99.3% | 47% | 101% | 99.3% | 93.8% | 105% | 34.6% | 94% | 99.7% | 101% | 96.5% | 34% | 99.7% | 102% | 96.9% | 95.3% | 53.3% | 3.2 µM | 3.07 µM | 2.75 µM | – | 3.3 | 2.9 | 3.2 | 4.1 | 3.2 | 3.54 µM
CN1[C@@H]2CC[C@H]1C[C@@H](OC(c1ccc(F)cc1)c1ccc(F)cc1)C2 [3-alpha-bis-(4-fluorophenyl)-methoxytropane] | 95.5% | 90.9% | 92.6% | 102% | 102% | 109% | 106% | 99.5% | 126% | 86.5% | 102% | 96.3% | 92% | 93.6% | 74.1% | 102% | 96.1% | 101% | 96.8% | 93.1% | 102% | 103% | 100% | 97.9% | 86.1% | > 10 µM | > 10 µM | > 10 µM | > 10 µM | 0 | 0 | 1.6 | 0 | 0.3 | –
